# From ChEMBL document CHEMBL1201862, “PubChem BioAssay data set” (2004)
#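 Results reflect a 48-hour exposure of cells in 96-well plates to compound at five concentrations. Abbreviation: GI50, concentration required for 50% inhibition of growth.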 The source made the active and inactive calls. No stated cut-off is given here; in the data, active = GI50 up to about 1.1 µM and inactive = higher.
# Experiments:
# Experiment in all cases: inhibition of tumour cell growth, NCI panel, 48 h
# OVCAR-5 = system: OVCAR-5
# SK-MEL-2 = system: SK-MEL-2
# DMS-114 = system: DMS-114
# OVCAR-3 = system: OVCAR-3
# HCT-116 = system: HCT-116
# COLO 205 = system: COLO 205
# HOP-92 = system: HOP-92
# K562 = system: K562
# A498 = system: A498
# Malme-3M = system: Malme-3M
# NCI-H522 = system: NCI-H522
# SNB-19 = system: SNB-19
# SK-MEL-28 = system: SK-MEL-28
# IGROV-1 = system: IGROV-1
# CAKI-1 = system: CAKI-1
# SR = system: SR
# MDA-N = system: MDA-N
# BT-549 = system: BT-549
# DU-145 = system: DU-145
# Hs-578T = system: Hs-578T
SMILES,GI50 (OVCAR-5),GI50 (SK-MEL-2),GI50 (DMS-114),GI50 (OVCAR-3),GI50 (HCT-116),GI50 (COLO 205),GI50 (HOP-92),GI50 (K562),GI50 (A498),GI50 (Malme-3M),GI50 (NCI-H522),GI50 (SNB-19),GI50 (SK-MEL-28),GI50 (IGROV-1),GI50 (CAKI-1),GI50 (SR),GI50 (MDA-N),GI50 (BT-549),GI50 (DU-145),GI50 (Hs-578T)
CC(c1cccc2ccccc12)/[N+]([O-])=C/c1ccccc1 (centres undefined),> 100 µM (inactive),> 100 µM (inactive),> 100 µM (inactive),> 100 µM (inactive),> 100 µM (inactive),> 100 µM (inactive),29.5 µM (inactive),> 100 µM (inactive),> 100 µM (inactive),> 100 µM (inactive),78.7 µM (inactive),> 100 µM (inactive),> 100 µM (inactive),> 100 µM (inactive),,,,,,
C[C@]12CCc3nn(-c4ccccc4)nc3C1CC[C@@H]1C2CC[C@]2(C)C(=O)CCC12 (some centres undefined),> 100 µM (inactive),> 100 µM (inactive),> 100 µM (inactive),> 100 µM (inactive),> 100 µM (inactive),> 100 µM (inactive),> 100 µM (inactive),54.3 µM (inactive),,> 100 µM (inactive),> 100 µM (inactive),> 100 µM (inactive),> 100 µM (inactive),> 100 µM (inactive),> 100 µM (inactive),> 100 µM (inactive),,,,
CCNC(=O)OCC1C2=C(C(=O)C(C)=C(N)C2=O)N2CC3C(N3C)C12OC (centres undefined),> 72.6 µM (inactive),30.3 µM (inactive),,21.9 µM (inactive),14.6 µM (inactive),27.6 µM (inactive),> 75 µM (inactive),25.5 µM (inactive),20.9 µM (inactive),17.6 µM (inactive),11.7 µM (inactive),24 µM (inactive),> 81.7 µM (inactive),18.5 µM (inactive),3.95 µM (inactive),1.48 µM (inactive),> 88.5 µM (inactive),11.5 µM (inactive),4.1 µM (inactive),> 100 µM (inactive)
Clc1ccc(C2SCc3nc4ccccc4n32)cc1Cl (centres undefined),10.5 µM (inactive),16.2 µM (inactive),14.8 µM (inactive),10.5 µM (inactive),13.2 µM (inactive),20.3 µM (inactive),11.2 µM (inactive),8.34 µM (inactive),,18.8 µM (inactive),11.5 µM (inactive),10.6 µM (inactive),12.5 µM (inactive),17.3 µM (inactive),14.1 µM (inactive),13.9 µM (inactive),,,,
CC(=O)N1CCC(=O)/C(=C/c2ccccc2)C1,> 100 µM (inactive),,15.8 µM (inactive),33.3 µM (inactive),18.1 µM (inactive),34.6 µM (inactive),33.1 µM (inactive),37.8 µM (inactive),56.5 µM (inactive),91.2 µM (inactive),,> 100 µM (inactive),18 µM (inactive),19.8 µM (inactive),15.5 µM (inactive),24.5 µM (inactive),,,,
O=C(/N=N/C(=O)OCc1ccccc1)OCc1ccccc1,> 100 µM (inactive),> 100 µM (inactive),34.4 µM (inactive),58.2 µM (inactive),> 100 µM (inactive),> 100 µM (inactive),10.4 µM (inactive),63.5 µM (inactive),,> 100 µM (inactive),,64.9 µM (inactive),,> 100 µM (inactive),49.8 µM (inactive),,,,,
CSc1nnc(CCC(=O)Nc2c(C)cccc2C)o1,> 100 µM (inactive),> 100 µM (inactive),> 100 µM (inactive),> 100 µM (inactive),> 100 µM (inactive),> 100 µM (inactive),> 100 µM (inactive),> 100 µM (inactive),> 100 µM (inactive),> 100 µM (inactive),> 100 µM (inactive),> 100 µM (inactive),> 100 µM (inactive),> 100 µM (inactive),> 100 µM (inactive),,,,,
COC(=O)/C(C#N)=C(/NCc1ccccc1)Nc1ccccc1,> 100 µM (inactive),> 100 µM (inactive),,72.3 µM (inactive),63 µM (inactive),73.1 µM (inactive),81.7 µM (inactive),46.1 µM (inactive),> 100 µM (inactive),> 100 µM (inactive),55.7 µM (inactive),> 100 µM (inactive),> 100 µM (inactive),> 100 µM (inactive),> 100 µM (inactive),53.8 µM (inactive),46.9 µM (inactive),> 100 µM (inactive),> 100 µM (inactive),68.5 µM (inactive)
CCCOc1cc2c(cc1O)CC[C@@H]1[C@@H]2CC[C@]2(C)[C@@H](O)CC[C@@H]12,27.4 µM (inactive),2.17 µM (inactive),,1.55 µM (inactive),1.64 µM (inactive),12 µM (inactive),10.3 µM (inactive),0.209 µM (active),5.37 µM (inactive),6.82 µM (inactive),0.383 µM (active),6.71 µM (inactive),8.26 µM (inactive),5.48 µM (inactive),2.81 µM (inactive),0.209 µM (active),0.22 µM (active),0.524 µM (active),3.27 µM (inactive),1.55 µM (inactive)
c1cncc(CNc2ncn[nH]2)c1,> 100 µM (inactive),> 100 µM (inactive),,> 100 µM (inactive),> 100 µM (inactive),> 100 µM (inactive),> 100 µM (inactive),> 100 µM (inactive),> 100 µM (inactive),> 100 µM (inactive),> 100 µM (inactive),> 100 µM (inactive),> 100 µM (inactive),> 100 µM (inactive),> 100 µM (inactive),> 100 µM (inactive),> 100 µM (inactive),> 100 µM (inactive),> 100 µM (inactive),> 100 µM (inactive)
CNC(=O)OCc1c2ccncc2c(C)c2c1[nH]c1ccccc12,0.296 µM (active),0.261 µM (active),,0.28 µM (active),0.184 µM (active),0.443 µM (active),0.695 µM (active),0.275 µM (active),0.202 µM (active),0.372 µM (active),0.0646 µM (active),0.372 µM (active),0.818 µM (active),0.182 µM (active),0.141 µM (active),< 0.01 µM (active),0.501 µM (active),0.32 µM (active),0.269 µM (active),0.413 µM (active)
Oc1ccc2ccccc2c1/C=N/Cc1c(O)ccc2ccccc12,> 100 µM (inactive),71.8 µM (inactive),,18.4 µM (inactive),28.3 µM (inactive),> 100 µM (inactive),26.4 µM (inactive),18.5 µM (inactive),26.1 µM (inactive),43.2 µM (inactive),6.53 µM (inactive),36.9 µM (inactive),> 100 µM (inactive),35.6 µM (inactive),87.7 µM (inactive),27.2 µM (inactive),51.1 µM (inactive),45.3 µM (inactive),41.4 µM (inactive),69 µM (inactive)
